Laboratory results published in ChEMBL document CHEMBL4177521, “Therapeutic Potential of Fatty Acid Amide Hydrolase, Monoacylglycerol Lipase, and N-Acylethanolamine Acid Amidase Inhibitors” (J Med Chem, 2017).

Legend:
Monoglyceride lipase [1] = target: T1, Monoglyceride lipase (Rattus norvegicus, UniProt Q8R431); assay: Inhibition of rat MAGL
T1 sequence (Q8R431 whole entry): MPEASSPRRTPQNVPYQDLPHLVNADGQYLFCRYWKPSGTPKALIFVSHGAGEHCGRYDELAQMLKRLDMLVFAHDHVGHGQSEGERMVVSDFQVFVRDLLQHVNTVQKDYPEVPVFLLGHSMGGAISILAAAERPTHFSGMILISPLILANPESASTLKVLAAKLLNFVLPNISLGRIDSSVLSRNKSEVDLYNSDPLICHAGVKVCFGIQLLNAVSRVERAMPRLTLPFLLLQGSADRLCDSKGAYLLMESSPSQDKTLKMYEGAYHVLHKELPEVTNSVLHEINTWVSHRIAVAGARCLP

Monoglyceride lipase [2] = target: T2, Monoglyceride lipase (Mus musculus, UniProt O35678); assay: Inhibition of mouse MAGL
T2 sequence (O35678 whole entry): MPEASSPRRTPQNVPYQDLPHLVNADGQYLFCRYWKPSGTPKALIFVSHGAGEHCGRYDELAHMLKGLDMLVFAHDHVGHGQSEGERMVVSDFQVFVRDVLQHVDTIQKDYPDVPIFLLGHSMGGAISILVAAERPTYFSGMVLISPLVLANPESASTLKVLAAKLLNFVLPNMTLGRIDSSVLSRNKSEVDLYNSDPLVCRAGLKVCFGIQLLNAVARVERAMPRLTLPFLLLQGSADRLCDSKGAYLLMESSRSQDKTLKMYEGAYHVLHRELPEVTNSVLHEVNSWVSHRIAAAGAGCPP

[3] = target: T3, Fatty-acid amide hydrolase 1 (Rattus norvegicus, UniProt P97612); assay: Inhibition of rat FAAH
T3 sequence (P97612 whole entry): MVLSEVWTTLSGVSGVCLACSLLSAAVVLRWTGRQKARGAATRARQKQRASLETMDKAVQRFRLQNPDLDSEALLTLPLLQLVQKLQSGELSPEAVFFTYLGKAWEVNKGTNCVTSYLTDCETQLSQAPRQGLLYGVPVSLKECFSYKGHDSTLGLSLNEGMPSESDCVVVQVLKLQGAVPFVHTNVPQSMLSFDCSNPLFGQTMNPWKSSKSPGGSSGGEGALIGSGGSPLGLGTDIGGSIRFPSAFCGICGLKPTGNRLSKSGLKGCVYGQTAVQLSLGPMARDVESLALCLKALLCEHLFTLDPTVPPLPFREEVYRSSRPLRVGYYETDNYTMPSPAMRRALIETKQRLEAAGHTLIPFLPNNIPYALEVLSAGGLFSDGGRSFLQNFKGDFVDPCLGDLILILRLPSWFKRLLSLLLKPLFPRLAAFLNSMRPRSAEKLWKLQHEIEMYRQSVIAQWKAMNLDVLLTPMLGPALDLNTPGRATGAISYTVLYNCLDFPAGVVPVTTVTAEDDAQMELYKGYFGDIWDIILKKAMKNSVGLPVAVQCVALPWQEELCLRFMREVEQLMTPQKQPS

[4] = target: T4, Fatty-acid amide hydrolase 2 (Homo sapiens, UniProt Q6GMR7); assay: Inhibition of recombinant human N-terminal FLAG-tagged/C-terminal Myc-His6 tagged FAAH2 (32 to 579 residues) expressed in COS7 cell membranes; format: cell-based
T4 sequence (Q6GMR7 whole entry): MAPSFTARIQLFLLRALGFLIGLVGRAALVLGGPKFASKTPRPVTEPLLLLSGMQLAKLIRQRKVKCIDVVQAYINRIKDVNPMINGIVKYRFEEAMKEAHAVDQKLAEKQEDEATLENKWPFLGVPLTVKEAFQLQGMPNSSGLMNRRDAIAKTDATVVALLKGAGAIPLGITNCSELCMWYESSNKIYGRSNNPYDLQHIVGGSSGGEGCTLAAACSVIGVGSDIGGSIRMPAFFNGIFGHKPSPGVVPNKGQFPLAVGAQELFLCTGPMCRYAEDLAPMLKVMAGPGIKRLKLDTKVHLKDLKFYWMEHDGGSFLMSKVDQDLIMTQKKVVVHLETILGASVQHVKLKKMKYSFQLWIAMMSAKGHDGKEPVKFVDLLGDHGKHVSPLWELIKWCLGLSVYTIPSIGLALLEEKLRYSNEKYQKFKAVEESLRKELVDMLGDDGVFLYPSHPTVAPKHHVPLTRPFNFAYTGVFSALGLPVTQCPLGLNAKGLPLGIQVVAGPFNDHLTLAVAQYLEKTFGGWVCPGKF

Monoglyceride lipase [5] = target: T1, Monoglyceride lipase; assay: Inhibition of recombinant rat MAGL expressed in Escherichia coli using 2-AG as substrate
[6] = target: T5, N-acylethanolamine-hydrolyzing acid amidase (Homo sapiens, UniProt Q02083); assay: Inhibition of recombinant human NAAA expressed in HEK293 cells preincubated for 10 mins followed by PAMCA substrate addition after 30 mins by fluorescence assay; format: cell-based
T5 sequence (Q02083 whole entry): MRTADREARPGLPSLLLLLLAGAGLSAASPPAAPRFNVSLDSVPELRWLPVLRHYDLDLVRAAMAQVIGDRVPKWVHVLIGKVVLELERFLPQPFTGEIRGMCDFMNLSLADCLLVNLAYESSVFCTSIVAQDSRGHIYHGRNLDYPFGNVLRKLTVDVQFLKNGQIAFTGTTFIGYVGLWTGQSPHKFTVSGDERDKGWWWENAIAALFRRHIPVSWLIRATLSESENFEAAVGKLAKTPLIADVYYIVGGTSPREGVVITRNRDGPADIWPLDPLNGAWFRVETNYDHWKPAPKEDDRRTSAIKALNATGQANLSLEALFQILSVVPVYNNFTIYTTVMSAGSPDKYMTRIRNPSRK

Monoglyceride lipase [7] = target: T1, Monoglyceride lipase; assay: Inhibition of recombinant rat N-terminal histidine tagged MAGL expressed in Escherichia coli Rosetta 2 (DE3) pLysS cells preincubated for 10 mins followed by 2-OG substrate addition after 10 mins by LC/MS analysis
[8] = target: T3, Fatty-acid amide hydrolase 1; assay: Inhibition of FAAH in Wistar rat brain membranes using [3H]-anandamide as substrate preincubated for 10 mins followed by substrate addition measured after 4 mins by liquid scintillation counting method; format: cell membranes, Membrane
[9] = Half life in rat plasma at 3 uM by LC/MS analysis; format: ADME, cell-free
Monoglyceride lipase [10] = target: T2, Monoglyceride lipase; assay: Inhibition of mouse MAGL preincubated for 30 mins followed by FP-Rh addition after 30 mins by gel-based ABPP assay
Monoglyceride lipase [11] = target: T1, Monoglyceride lipase; assay: Inhibition of rat MAGL preincubated for 30 mins followed by FP-Rh addition after 30 mins by gel-based ABPP assay
Monoglyceride lipase [12] = target: T6, Monoglyceride lipase (Homo sapiens, UniProt Q99685); assay: Inhibition of recombinant human full length MAGL expressed in HEK293 cells preincubated for 30 mins followed by FP-Rh addition after 30 mins by gel-based ABPP assay; format: cell-based
T6 sequence (Q99685 whole entry): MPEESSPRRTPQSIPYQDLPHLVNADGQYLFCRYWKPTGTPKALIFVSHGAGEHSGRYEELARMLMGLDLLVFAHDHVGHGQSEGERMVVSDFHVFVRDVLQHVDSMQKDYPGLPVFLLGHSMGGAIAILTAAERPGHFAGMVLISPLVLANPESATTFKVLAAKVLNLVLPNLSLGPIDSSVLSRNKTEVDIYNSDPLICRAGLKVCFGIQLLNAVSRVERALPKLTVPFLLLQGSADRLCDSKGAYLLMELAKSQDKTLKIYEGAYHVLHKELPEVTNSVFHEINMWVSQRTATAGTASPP

[13] = target: T3, Fatty-acid amide hydrolase 1; assay: Inhibition of rat brain microsomal FAAH using N-(2-hydroxyethyl)-4-pyren-1-yl-butanamide as substrate after 60 mins by RP HPLC based fluorescence assay
[14] = target: T3, Fatty-acid amide hydrolase 1; assay: Inhibition of rat FAAH assessed as reduction in [14C]oleamide conversion to oleic acid by Lineweaver-Burk plot analysis
[15] = target: T5, N-acylethanolamine-hydrolyzing acid amidase; assay: Time dependent inhibition of recombinant human NAAA expressed in HEK293 cell membranes using [14C]-PEA as substrate by liquid scintillation counting method
[16] = target: T5, N-acylethanolamine-hydrolyzing acid amidase; assay: Time dependent inhibition of recombinant human NAAA expressed in HEK293 cells by liquid scintillation counting method; format: cell-based
Monoglyceride lipase [17] = target: T1, Monoglyceride lipase; assay: Inhibition of rat cerebellar membranes MAGL-like activity preincubated for 30 mins followed by 2-AG substrate addition after 90 mins by HPLC analysis; design: species or system Cerebellum, Membrane
[18] = Half life in pH 5.0 buffer; format: physicochemical
[19] = Half life in pH 7.4 buffer; format: physicochemical
[20] = Half life in rat plasma; format: ADME, cell-free

SMILES: O=C(N1CCC(=C(c2ccc3c(c2)OCO3)c2ccc3c(c2)OCO3)CC1)n1cncn1
- IC50 (Monoglyceride lipase [1]): 0.269 nM
- IC50 (Monoglyceride lipase [2]): 0.191 nM

SMILES: COc1nn(-c2ccc(NC(=O)OCc3ccccc3)c(C)c2)c(=O)o1
- IC50 [3]: 86 nM

SMILES: NC(=O)c1cccc(-c2cccc(OC(=O)NC3CCCCC3)c2)c1 [URB-597]
- IC50 [4]: 5 nM

SMILES: COC(=O)[C@]1(C)CC[C@]2(C)CC[C@]3(C)C4=CC=C5C(=CC(=O)C(O)=C5C)[C@]4(C)CC[C@@]3(C)C2C1 (some centres undefined)
- IC50 (Monoglyceride lipase [5]): 93 nM

SMILES: O=C(Oc1ccc([N+](=O)[O-])cc1)N1CCN(C(c2ccc(F)cc2)c2ccc(F)cc2)CC1
- IC50 (Monoglyceride lipase [1]): 1800 nM
- IC50 (Monoglyceride lipase [2]): 282 nM

SMILES: CCCCCCCCCCC(=O)N[C@H]1CNC1=O
- IC50 ([6]; hek293): 100 nM

SMILES: CCCCCCCC/C=C\CCCCCCCCn1sccc1=O
- IC50 (Monoglyceride lipase [7]): 43 nM

SMILES: COc1nn(-c2cccc(Oc3ccccc3)c2)c(=O)o1
- IC50 [3]: 6.1 nM

SMILES: O=C(NC1CCCCC1)Oc1cccc(-c2ccccc2)c1
- IC50 [8]: 25.6 nM

SMILES: CC(C)(C)[C@@H]1OC(=O)[C@H]1NC(=O)OCCCCCc1ccccc1
- IC50 [6]: 234 nM
- half-life at 3 µM [9]: > 5 min

SMILES: O=C(OC(C(F)(F)F)C(F)(F)F)N1CCN(Cc2cccc(Oc3ccccc3)c2)CC1
- IC50 (Monoglyceride lipase [10]): 7.6 nM
- IC50 (Monoglyceride lipase [11]): 14 nM
- IC50 (Monoglyceride lipase [12]): 3.7 nM

SMILES: O=C(N1CCN(C(c2ccc(F)cc2)c2ccc(F)cc2)CC1)n1cncn1
- IC50 (Monoglyceride lipase [1]): 1.1 nM
- IC50 (Monoglyceride lipase [2]): 0.219 nM

SMILES: O=C(NCCCCCCn1nnc(-c2cccc(Cl)c2)n1)Oc1ccccc1
- IC50 [13]: 200 nM

SMILES: O=C(CCCCCCCCc1ccccc1)c1nc2ncccc2o1
- Ki [14]: 0.52 nM

SMILES: O=C(CCCCCCCc1ccccc1)c1nc2ncccc2o1
- Ki [14]: 0.39 nM

SMILES: CCCCCCCCn1sc2ccccc2c1=O
- IC50 (Monoglyceride lipase [7]): 20 nM

SMILES: CC(=O)Oc1cccc2c1C(=O)c1c(OC(C)=O)cc(C(=O)O)cc1C2=O [DIACEREIN]
- IC50 [15]: 0.7 to 7.2 µM
- IC50 [16]: 0.7 to 7.2 µM

SMILES: O=C1C=CC(=O)N1c1ccc2ccc3cccc4ccc1c2c34
- IC50 (Monoglyceride lipase [17]): 9.2 µM

SMILES: CCCCCCCCCC(=O)c1nc2ncccc2o1
- Ki [14]: 0.75 nM

SMILES: O=C(N1CCN(C(c2ccccc2)c2ccccc2)CC1)n1ccnc1
- IC50 (Monoglyceride lipase [1]): 4800 nM
- IC50 (Monoglyceride lipase [2]): 2600 nM

SMILES: CC(C)(C)[C@@H]1OC(=O)[C@H]1NC(=O)OCc1ccc(-c2ccccc2)cc1
- IC50 [6]: 507 nM
- half-life at 3 µM [9]: > 5 min

SMILES: O=C(NCCCCCCn1nnc(-c2ccccc2)n1)Oc1cccnc1
- IC50 [13]: 11 nM

SMILES: O=C(CCCCCc1ccccc1)N1CCOC1=O
- half-life [18]: > 1440 min
- half-life [19]: > 1440 min
- half-life [20]: 200 min
